Results on 2 compounds are retold here after BindingDB's records for patent US11957687 (Regeneron Pharmaceuticals, 2024).

Each structure is given as a SMILES string.

This assay deals with T1, 17-beta-hydroxysteroid dehydrogenase 13 (Homo sapiens, UniProt Q7Z5P4).
T1 sequence (Q7Z5P4 whole entry): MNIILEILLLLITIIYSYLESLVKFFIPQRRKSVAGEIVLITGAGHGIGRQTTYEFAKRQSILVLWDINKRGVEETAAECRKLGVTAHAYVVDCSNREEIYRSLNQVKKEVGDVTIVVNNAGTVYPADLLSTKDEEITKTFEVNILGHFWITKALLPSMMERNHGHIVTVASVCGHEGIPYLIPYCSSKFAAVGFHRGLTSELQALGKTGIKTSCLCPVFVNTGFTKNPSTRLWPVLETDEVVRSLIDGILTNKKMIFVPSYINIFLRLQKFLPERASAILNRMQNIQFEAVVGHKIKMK
The assay can be described thus: HSD17B13 Enzymatic Blocking Assay (50nM). The method, then:
Compounds of the disclosure were screened for their ability to block HSD17B13 function using an enzymatic blocking assay. HSD17B13 activity was quantified using a NADH Glo luminescence assay (Promega, #Cat. No. G9062) to measure the formation of NADH from the oxidation of LTB4, a known HSD17B13 substrate. Compounds were over a 10-point dose curve using an Echo-555 liquid handling dispenser. HSD17B13 (SEQ ID NO: 1, expressed in E. coli) was added at […] a final concentration of 50 nM, depending on the assay run, in a buffer containing 0.2M Tris-HCl pH 7.5 containing 0.01% Triton-X into a low volume white 384-well assay plate. Compounds were incubated with the enzyme for 30 minutes at room temperature. The assay reaction was then initiated by addition of 10 μM LTB4 substrate (Cayman chemicals, Cat. No. 20110) and 500 μM NAD, and the reaction mixture was incubated for 1 or 2 hours at room temperature depending on the assay run. DMSO at a concentration of 0.5% was used as a negative control, and a ‘no substrate’ control was used as a positive control (100% inhibition) in the assay. […] Generation of NADH was detected in the luminescence mode on the Envision Perkin Elmer plate reader. The IC50 values were determined using Dotmatics analysis software.

In the case of `CCCC1Cc2ccc(C)cc2C1NC(=O)c1ccc(C(F)(F)F)[nH]c1=O` (configuration not stated) [US11957687, Compound 291], the IC50 (as a rule, the concentration that gives 50% inhibition) amounted to 80 nM. This lies in the double-digit nanomolar range.
The value for `CC(C)(C)OC(=O)NCCc1cccc2c1CCCC2NC(=O)c1ccc(C(F)(F)F)[nH]c1=O` (configuration not stated) [US11957687, Compound 301] was 3450 nM.
